Reference: patent US7601863B2, “Use of PPAR agonists for the treatment of congestive heart failure” (sanofi-aventis Deutschland GmbH, priority 2004, dated 2009)

Assays:
[1] = tested on: rats with chronic ligation of the left coronary artery (myocardial infarction, heart failure); assay: Dose response in chronic myocardial infarction: lung weight and isolated working heart after 8 weeks of treatment; type: in vivo, Male Sprague Dawley rats; settings: for Lung weight / Cardiac output / LV dP/dtmax / LV dP/dtmin: MI, 8 weeks, mean ± sem; for Cardiac output / LV dP/dtmax / LV dP/dtmin: working heart, afterload 80 mmHg
Procedure: At the end of the treatment period, cardiac function was measured using an isolated working heart preparation (modified Langendorff apparatus, cf. Linz et al., J. Ren. Angiotensin Aldosterone Syst., 2003): The hearts were perfused according to Langendorff's method with an oxygenated (95% O2, 5% CO2) noncirculating Krebs-Henseleit solution of the following compositions (mmol/L): NaCl, 118; KCl, 4.7; CaCl2, 2.5; MgSO4, 1.6; NaHCO3, 24.9; KH2PO4, 1.2; glucose, 5.5; Na-pyruvate, 2.0. The left atrium was cannulated by an incision of the left auricle. After a 15-minute equilibration period at a fixed perfusion pressure of 60 mmHg, the heart was switched into the working mode at a fixed filling pressure of 11 mm Hg. Then, afterload pressure was varied stepwise every two minutes from 40 to 140 mmHg. Data in the table are representative and given for a constant afterload pressure of 80 mmHg. Flow and pressure signals were sampled at 500 Hz, averaged every 2 seconds. Cardiac output measures the overall capacity of the heart to pump the blood through the body. LV dP/dtmax is an index of myocardial contractility, i.e. the force generating ability of the heart; LV dP/dtmin is an index of the ability of the myocardium to relax. In addition, lung weight was measured as an index of pulmonary congestion, an indirect sign of CHF.
Male Sprague Dawley rats were pre-treated with a chronic ligation of the left coronary artery, in order to produce a myocardial infarction (MI) and subsequent development of heart failure: Treatment with a compound of the formula (I) (pressed in chow, resulting in different daily doses) was initiated on the day after myocardial infarction. After 8 weeks of treatment, the animals were killed, the lung was weighed, and the function of the isolated heart was analyzed ex vivo in the working heart mode, in the same manner as described for Example 1 (vide supra). This method allows to assess different aspects of the myocardial function. For comparison against the effect of an established therapeutic principle in the present experimental series, the dual ACE/NEP, or vasopeptidase, inhibitor (7-(2-Acetylsulfanyl-3-methyl-butyrylamino)-6-oxo-1,2,3,4,6,7,8,12b-octahydro-benzo[c]pyrido[1,2-a]azepine-4-carboxylic acid; international patent application no. WO 02/083671) that is known for being active in the treatment of CHF was applied in an additional group.

[2] = tested on: rat model of chronic coronary artery ligation (myocardial infarction, congestive heart failure); assay: Proof of concept study: chronic heart failure after permanent left coronary artery occlusion; lung weight and isolated working heart after eight weeks of treatment; type: in vivo, Male Wistar rats; settings: for Lung weight / Cardiac output / LV dP/dtmax / LV dP/dtmin: MI, eight weeks, mean ± sem; for Cardiac output / LV dP/dtmax / LV dP/dtmin: working heart, afterload 80 mmHg
From the text: In order to test the effect of specific activation of either PPARγ (rosiglitazone) or PPARα (compound of formula (I), (II) and (III)) on the improvement of CHF, a rat model of chronic coronary artery ligation was used because myocardial infarction is the most common cause for CHF in the industrialized countries.
Male Wistar rats were housed three per cage under standardized conditions of temperature, humidity, and light. They had free access to a standardized diet (sodium content 0.2%, Altromin, Lage, Germany) and tap drinking water. Chronic heart failure was induced by a permanent occlusion of the left coronary artery approximately 2 mm distal to its origin from the aorta resulting in a large infarction of the free left ventricular wall. Chronic treatment was initiated on the day after production of the myocardial infarction and continued for eight weeks.
The left atrium was cannulated by an incision of the left auricle. After a 15-minute equilibration period at a fixed perfusion pressure of 60 mmHg, the heart was switched into the working mode at a fixed filling pressure of 11 mm Hg. Then, afterload pressure was varied stepwise every two minutes from 40 to 140 mmHg. […] Flow and pressure signals were sampled at 500 Hz, averaged every 2 seconds. Cardiac output measures the overall capacity of the heart to pump the blood through the body. LV dP/dtmax is an index of myocardial contractility, i.e. the force generating ability of the heart; LV dP/dtmin is an index of the ability of the myocardium to relax. In addition, lung weight was measured as an index of pulmonary congestion, an indirect sign of CHF.
Treatment with a compound of the formula (I) (pressed in chow, resulting in a dose of 20 mg/kg/d) was initiated on the day after myocardial infarction. The pure PPARγ agonist rosiglitazone was used for comparison in an additional group (3 mg/kg/day in chow).

[3] = rosiglitazone 3 mg/kg/d in chow
[4] = compound (I) 20 mg/kg/d in chow

Q: With `CC(=O)SC(C(=O)NC1Cc2ccccc2C2CCCC(C(=O)O)N2C1=O)C(C)C` (centres unmarked) [VPI, 7-(2-Acetylsulfanyl-3-methyl-butyrylamino)-6-oxo-1,2,3,4,6,7,8,12b-octahydro-benzo[c]pyrido[1,2-a]azepine-4-carboxylic acid, reference compound] as the compound, how does the Lung weight ([1]; 30 mg/kg/d) read?
A: The Lung weight was 0.56 ± 0.07 g/100 g BW.

Q: And the Cardiac output ([1]; 30 mg/kg/d)?
A: The Cardiac output was 27.2 ± 3.5 mL/min.

Q: And the “LV dP/dtmax” value ([1]; 30 mg/kg/d)?
A: Its value is 3868 ± 172 Mm Hg/s.

Q: And the “LV dP/dtmin” value ([1]; 30 mg/kg/d)?
A: Its value is 2379 ± 120 mm Hg/s.

Q: `CN(CCOc1ccc(CC2SC(=O)NC2=O)cc1)c1ccccn1` (centres unmarked) [Rosiglitazone, rosiglitazone, reference compound] was tested. Which Lung weight [2, 3] did it give?
A: The Lung weight was 3.67 ± 0.38 Gram.

Q: What about the Cardiac output [2, 3] of the same compound?
A: Its Cardiac output is 10.2 ± 3.8 mL/min.

Q: And the “LV dP/dtmax” value [2, 3]?
A: Its value is 3491 ± 147 mmHg/s.

Q: What about the “LV dP/dtmin” value [2, 3] of the same compound?
A: Its value is 2081 ± 65 mmHg/s.

Q: For `Cc1cccc(COCCCOCc2coc(-c3ccccc3)n2)c1C(=O)O` [compound (I), 2-methyl-6-[3-(2-phenyloxazol-4-ylmethoxy)propoxymethyl] benzoic acid], which “Effect of chronic treatment on heart failure (in words)” value ([2]; MI rats, eight weeks in chow, compound (I) 20 mg/kg/d, rosiglitazone 3 mg/kg/day) is on record?
A: The value was “improves different aspects of heart failure”.

Q: And the Lung weight [2, 4]?
A: The Lung weight was 1.62 ± 0.06 Gram.

Q: And the Cardiac output [2, 4]?
A: The Cardiac output was 25.8 ± 4.3 mL/min.

Q: What about the “LV dP/dtmax” value [2, 4] of the same compound?
A: Its value is 4614 ± 253 mmHg/s.

Q: What about the “LV dP/dtmin” value [2, 4] of the same compound?
A: The value was 2502 ± 77 mmHg/s.

Q: What about the “Effect of chronic treatment on heart failure (in words)” value ([1]; MI rats, 8 weeks in chow, different daily doses) of the same compound?
A: The value was “improves different aspects of heart failure”.

Q: What about the Lung weight ([1]; 1 mg/kg/d in chow) of the same compound?
A: Its Lung weight is 0.80 ± 0.08 g/100 g BW.

Q: And the Cardiac output ([1]; 1 mg/kg/d in chow)?
A: The Cardiac output was 12.5 ± 3.3 mL/min.

Q: What about the “LV dP/dtmax” value ([1]; 1 mg/kg/d in chow) of the same compound?
A: Its value is 3280 ± 250 Mm Hg/s.

Q: And the “LV dP/dtmin” value ([1]; 1 mg/kg/d in chow)?
A: The value was 1886 ± 137 mm Hg/s.

Q: And the Lung weight ([1]; 3 mg/kg/d in chow)?
A: The Lung weight was 0.54 ± 0.08 g/100 g BW.

Q: What about the Cardiac output ([1]; 3 mg/kg/d in chow) of the same compound?
A: Its Cardiac output is 21.5 ± 5.4 mL/min.

Q: And the “LV dP/dtmax” value ([1]; 3 mg/kg/d in chow)?
A: The value was 3665 ± 166 Mm Hg/s.

Q: And the “LV dP/dtmin” value ([1]; 3 mg/kg/d in chow)?
A: The value was 2353 ± 77 mm Hg/s.

Q: What about the Lung weight ([1]; 10 mg/kg/d in chow) of the same compound?
A: Its Lung weight is 0.54 ± 0.09 g/100 g BW.

Q: What about the Cardiac output ([1]; 10 mg/kg/d in chow) of the same compound?
A: Its Cardiac output is 21.0 ± 4.0 mL/min.

Q: And the “LV dP/dtmax” value ([1]; 10 mg/kg/d in chow)?
A: Its value is 4043 ± 256 Mm Hg/s.

Q: What about the “LV dP/dtmin” value ([1]; 10 mg/kg/d in chow) of the same compound?
A: Its value is 2339 ± 111 mm Hg/s.
